Measurements reported in article PMC12040169 (PLOS Biology, 2025).

experiment: in vitro; conditions: human, hela cells, % viability

| SMILES | viability at 28.5 h, 10 µM [%] |
| --- | --- |
| CC1CCC2(CC1)N=C(N)Nc1nc3ccccc3n12 (stereo not shown) [CBK277657] | 88.4 |
| Fc1ccccc1COc1cccc(CNCCN2CCOCC2)c1 [CBK278148C] | 102 |
| c1ccc2c(CNCCN3CCOCC3)cccc2c1 [CBK278156C] | 90.9 |
| O=C(O)CCNC1=Nc2ccccc2CCC1 [CBK278160] | 101 |
| CN1C2CCC1CC(OC(=O)CNC1CCCCC1)C2 (stereo not shown) [CBK278161C] | 93.6 |
| COc1c(Cl)cc(Cl)cc1CNCCCN1CCOCC1 [CBK278165C] | 88.8 |
| O=C1C=CC2=C3Oc4c(ccc5cc(O)ccc45)C(c4ccccc4C(=O)O)C3C=CC2=C1 (stereo not shown) [CBK278169N] | 82.8 |
| CCc1nnc(N/N=C/c2ccc(OCc3ccc(F)cc3Cl)c(OC)c2)n1N [CBK278173C] | 87.1 |
| CN(C)CCOC(=O)C1CCCCCN1C (stereo not shown) [CBK278175G] | 97.8 |
| CC(O)c1ccc(-c2ccc(CNCCCN3CCOCC3)o2)cc1 (stereo not shown) [CBK278178C] | 95.4 |
| COc1ccc(CNCCN2CCOCC2)c(OC)c1 [CBK278180C] | 90.1 |
| CCOc1c(CNCCN2CCOCC2)cccc1OC [CBK278182C] | 103 |
| COc1cccc(CNCCN2CCOCC2)c1O [CBK278183C] | 90.2 |
| O=C1C2C3C=CC(C3)C2C(=O)N1CCN1CCNCC1 (stereo not shown) [CBK278185C] | 92.3 |
| CN(C)CCNc1cc(-c2ccc3ccccc3c2)nc2ccccc12 [CBK278186B] | 67.9 |
| Cn1cccc1CNCCN1CCOCC1 [CBK278187C] | 89.2 |
| Clc1ccc(Cl)c(-c2ccc(CNCCCN3CCOCC3)o2)c1 [CBK278190C] | 89.3 |
| CN1CCN(CC(O)COc2ccccc2)CC1 (stereo not shown) [CBK278191G] | 83.8 |
| Fc1ccc(CNCCN2CCOCC2)cc1 [CBK278192C] | 105 |
| CCOC(=O)Nc1ccc2c(c1)N(C(=O)CCN(C)C)c1ccccc1CC2 [CBK278193C] | 89.9 |
| C(=C\c1ccccc1)/CNCCCN1CCOCC1 [CBK278195C] | 105 |

| SMILES | viability at 28.5 h, 10 µM [%] |
| --- | --- |
| O=S(=O)(O)c1ccc(N/N=C/c2cccc(/C=N/Nc3ccc(S(=O)(=O)O)cc3)c2)cc1 [CBK278204N] | 89 |
| Cc1cccc(C)c1OCCOCC(O)CN1CCN(C)CC1 (stereo not shown) [CBK278206C] | 90.4 |
| COc1ccc(Br)cc1CNCCCN1CCOCC1 [CBK278208C] | 102 |
| C1CN=C(SCCCSC2=NCCCN2)NC1 [CBK278210B] | 110 |
| CC1CCC(C(C)C)C(OCC(O)CN2CCN(C)CC2)C1 (stereo not shown) [CBK278213C] | 105 |
| C=CCOc1ccc(CNCCN2CCOCC2)cc1 [CBK278215C] | 94.3 |
| O=C(CCN1CCN(CCO)CC1)N1c2ccccc2Sc2ccc(C(F)(F)F)cc21 [CBK278218C] | 96.4 |
| COC(=O)Nc1ccc2c(c1)N(C(=O)CCN1CCN3CCCC3C1)c1ccccc1CC2 (stereo not shown) [CBK278220C] | 93.1 |
| Fc1ccccc1COc1ccccc1CNCCN1CCOCC1 [CBK278222C] | 96.4 |
| Cc1ccc(COC(CN2CCCCCC2)CN2CCCCCC2)cc1 [CBK278236C] | 100 |
| CN1CCN(CCCN2C(=O)CSC2c2cccc([N+](=O)[O-])c2)CC1 (stereo not shown) [CBK278237C] | 99.9 |
| CCOC(=O)c1c(C)nc2n(CCN3CCCCC3)c3ccccc3n12 [CBK278238C] | 91.3 |
| CCN(CC)CCn1c(=N)n(CC(=O)c2cccs2)c2ccccc21 [CBK278240B] | 85.1 |
| O=C(NCCN1CCNCC1)c1ccccn1 [CBK278241C] | 108 |
| CC(=O)c1c(-c2cccc3ccccc23)nc2n(CCN3CCCCC3)c3ccccc3n12 [CBK278243C] | 103 |
| N=c1n(CCN2CCCCC2)c2ccccc2n1CC(=O)c1cccs1 [CBK278244B] | 85 |
| OC(COCc1ccc2c(c1)OCO2)CN1CCN(Cc2ccccc2)CC1 (stereo not shown) [CBK278249C] | 93.5 |
| CC(C)(C)c1cn2c3ccccc3nc2n1CCN1CCOCC1 [CBK278252C] | 103 |
| CN1CCN(CC(O)COCc2ccc3c(c2)OCO3)CC1 (stereo not shown) [CBK278260C] | 81.4 |
| OCCN1CCN(CC(O)COCc2ccccc2)CC1 (stereo not shown) [CBK278262C] | 90.6 |
| CC(C)(C)C1CCC(OCC(O)CN2CCN(CCO)CC2)CC1 (stereo not shown) [CBK278263C] | 89.8 |

| SMILES | viability at 28.5 h, 10 µM [%] |
| --- | --- |
| CC(=C\C(=O)O)/C(=C/c1ccncc1)C(=O)O [CBK278265N] | 116 |
| OCCNCCNCc1ccc(-c2ccccc2)cc1 [CBK278269C] | 115 |
| CN(C)CCCn1c(NCc2ccc3c(c2)OCO3)nc2ccccc21 [CBK278273C] | 94.4 |
| Cc1nnc(N/N=C/c2cn(Cc3c(F)cccc3Cl)c3ccccc23)n1N [CBK278277C] | 86.8 |
| CCOC(=O)C1CCCN1Cc1ccccc1 (stereo not shown) [CBK278278G] | 95 |
| CCc1nnc(N/N=C/c2cc(Cl)c(OCc3ccccc3F)c(OC)c2)n1N [CBK278282C] | 85.4 |
| CN(C)CCCNC(=O)c1ccc(/C=N/O)[n+](C)c1 [CBK278284I] | 88.8 |
| NCCc1nc2ccccc2[nH]1 [CBK278287C] | 91.8 |
| Cc1ccccc1CNCCNCCO [CBK278293C] | 98 |
| c1ccc2c(c1)N1CCCN=C1N2CCN1CCOCC1 [CBK278300C] | 108 |
| N=C(N)SCCCCSC(=N)N [CBK278304B] | 102 |
| O=C(O)C(O)C(O)C(O)CO (stereo not shown) [CBK278306G] | 89.3 |
| O=S(=O)(O)CCCSCCCS(=O)(=O)O [CBK278307N] | 95.4 |
| COc1ccccc1CNCCCN1CCOCC1 [CBK278310C] | 96.2 |
| CC1=NN(c2ccc(S(=O)(=O)O)cc2)C(=O)/C1=C/C=C/c1c(C)nn(-c2ccc(S(=O)(=O)O)cc2)c1O [CBK278317K] | 94.6 |
| Cc1ccccc1OCC(O)CN1CCN(CCN2C(=O)c3cccc4cccc(c34)C2=O)CC1 (stereo not shown) [CBK278321C] | 68.9 |
| CC(C)(C)OC(=O)NCC1CCC(C(=O)O)CC1 (stereo not shown) [CBK278598] | 94.5 |
| CCOc1ncccc1C(=O)NCc1ccc(NC(N)=O)cc1 [CBK279382] | 111 |
| Cc1oc2[nH]c(CN(C)CCOc3ccc(Cl)cc3)nc(=N)c2c1C(=O)O [CBK279463] | 102 |
| O=C(O)CCCC(=O)Nc1ccccc1-c1nc2ccccc2[nH]c1=O [CBK280451] | 85.9 |
| Cc1nccn1CCCC(=O)NCC1(c2ccccc2F)CCCC1 [CBK281370] | 109 |

| SMILES | viability at 28.5 h, 10 µM [%] |
| --- | --- |
| Cc1ccc(C(C)(C)C(=O)N2CC(C(=O)N3CCN(C)CC3)C2)cc1 [CBK281371] | 99.4 |
| CC(=O)N1CC(C(=O)Nc2nc3c(C)cc(C)cc3s2)C1 [CBK281372] | 95.9 |
| CC(NC(=O)c1ccccc1Cn1cccn1)c1ccccn1 (stereo not shown) [CBK281374] | 86.3 |
| CNC(=O)C1(C)CCCN1C(=O)c1cc2cc(C)ccc2n1C (stereo not shown) [CBK281375] | 86.1 |
| CCn1cncc1C(=O)Nc1ccc(-n2ccnc2C(C)C)cc1 [CBK281379] | 95.8 |
| CC(C)c1nccn1-c1ccc(NC(=O)Cn2ccnc2)cc1 [CBK281381] | 88.9 |
| O=C(CCCn1ccnc1)Nc1ccc(N2CCCCC2)c(F)c1 [CBK281385] | 81.1 |
| O=C(Nc1ccc(N2CCCCC2)c(F)c1)C1CC(=O)N(C2CC2)C1 (stereo not shown) [CBK281387] | 108 |
| Cc1cc(C(=O)NCCn2nc(C)c(C)c2C)c2cccc(C)c2n1 [CBK281388] | 110 |
| Cc1ccc(C(=O)Nc2ccc(N3CCCCC3)c(F)c2)c(=O)n1C [CBK281390] | 89.5 |
| Cc1cc(CNC(=O)c2cc3ccc(Cl)cc3[nH]2)[nH]n1 [CBK281391] | 87.8 |
| Cc1nn(C)c(C)c1C(C)NS(=O)(=O)Cc1cccc(F)c1 (stereo not shown) [CBK281396] | 107 |
| Cc1ccc2nc(C(=O)NCCSc3nccn3C)cn2c1 [CBK281397] | 93.4 |
| Cc1ccc(S(=O)(=O)NCCc2nc3ccccc3n2C)s1 [CBK281398] | 81.5 |
| CCn1cnc2cc(NC(=O)CC(C)n3nc(C)cc3C)ccc21 (stereo not shown) [CBK281401] | 94.8 |
| Cc1nc(-c2ccc(NC(=O)Cc3sc(C)nc3C)cc2)cs1 [CBK281404] | 96 |
| Cc1noc(C)c1CC(=O)Nc1cccc(CN2CCCCCC2)c1 [CBK281407] | 105 |
| O=C(Cn1ccnc1)Nc1nc(-c2ccccc2F)cs1 [CBK281409] | 104 |
| Cc1ncncc1C(=O)NCC1(c2ccccc2F)CCCC1 [CBK281411] | 105 |
| CC1(CNS(=O)(=O)Cc2cc(F)cc(F)c2)COC1 [CBK281413] | 91.3 |

same assay, conditions: human, hela cells, % viability, bulk resorufin, single well

| SMILES | viability at 28.5 h, 10 µM [%] |
| --- | --- |
| O=C1NC(=O)N(c2ccc(Br)cc2)C(=O)/C1=C/c1ccc(O)c(O)c1 [CBK278167] | 104 |
| O=C1NC(=O)N(Cc2ccccc2)C(=O)/C1=C/c1ccc(O)c(O)c1 [CBK278181] | 117 |
